Columns and labels:
[1] = system: subclones of RKO colon adenocarcinoma cells (RKOp27 or RKOp21) arrested by Ponasterone A; assay: Alamar Blue cell viability assay, cell cycle specific mode of action: cells arrested by ectopic p27Kip1 induced by Ponasterone A versus proliferating cells; type: cell-based; details: Homo sapiens, RKO p27 induced (arrested) cells, 10 μM Ponasterone A, 72 hours, value = class bound given in Table A, read-out: −logIC50 RKO p27 induced (arrested) (converted)
Experimental: To determine the cell cycle specific mode of action, subclones of RKO colon adenocarcinoma cells (RKOp27 or RKOp21 as described by Schmidt et al. in Oncogene 19, 2423-2429; 2000) are seeded into 96 well flat bottom plates at a density of 15000 cells per well in a volume of 50 μl per well in DMEM growth medium with 10% FCS containing 10 μM Ponasterone A. 24 hours after seeding the 50 μl each of the compound dilutions in DMEM medium are added into each well of the 96 Well plate. Each compound dilution is tested as quadruplicates. Wells containing untreated control cells are filled with 50 μl DMEM medium containing 1% DMSO. The cells are then incubated with the substances for 72 hours at 37° C. in a humidified athmosphere containing 5% carbon dioxide. To determine the viability of the cells, 10 μl of an Alamar Blue solution (Biosource) are added and the fluorescence was measured at an extinction of 544 nm and an emission of 590 nm. For the calculation of the cell viability the emission value from untreated cells is set as 100% viability and the emission rates of treated cells are set in relation to the values of untreated cells. Viabilities are expressed as % values. Viability is compared of proliferating cells grown in the absence of the inducer Ponasterone A, versus viability of cells arrested by the expression of ectopic p27Kip1 induced by Ponasterone A.
(§1) Representative −log IC50 [mol/l] values for anti-proliferation/cytotoxicity determined in the mentioned assays follow from the following table A, in which the numbers of the compound correspond to the numbers of the examples.

[2] = system: RKO (RKOp27) human colon adenocarcinoma cells; assay: Alamar Blue cell viability assay, anti-proliferative/cytotoxic activity on proliferating RKO subclones; type: cell-based; details: RKOp27, 72 h, RKO p27 uninduced (proliferating) cells, value = class bound given in Table A, read-out: −logIC50 RKO p27 uninduced (proliferating) (converted)
Experimental: The anti-proliferative/cytotoxic activity of the compounds described herein, can be tested on subclones of RKO (RKOp27) human colon adenocarcinoma cells (Schmidt et al., Oncogene 19, 2423-2429; 2000) using the Alamar Blue cell viability assay (described in O'Brien et al. Eur J Biochem 267, 5421-5426, 2000). The compounds are dissolved as 20 mM solutions in dimethylsulfoxide (DMSO) and subsequently diluted in semi-logarithmic steps. DMSO dilutions are further diluted 1:100 into Dulbecco's modified Eagle's medium (DMEM) containing 10% fetal calf serum to a final concentration twice as much as the final concentration in the test. RKO subclones are seeded into 96 well flat bottom plates at a density of 5000 cells per well in a volume of 50 μl per well. 24 hours after seeding the 50 μl each of the compound dilutions in DMEM medium are added into each well of the 96 Well plate. Each compound dilution is tested as quadruplicates. Wells containing untreated control cells are filled with 50 μl DMEM medium containing 1% DMSO. The cells are then incubated with the substances for 72 hours at 37° C. in a hunified atmosphere containing 5% carbon dioxide. To determine the viability of the cells, 10 μl of an Alamar Blue solution (Biosource) are added and the fluorescence is measured at an extinction of 544 nm and an emission of 590 nm. For the calculation of the cell viability the emission value from untreated cells is set as 100% viability and the emission rates of treated cells are set in relation to the values of untreated cells. Viabilities are expressed as % values.
The corresponding IC50 values of the compounds for anti-proliferative/cytotoxic activity are determined from the concentration-effect curves.
as §1

With COc1cccc(C(C)CC(=O)Nc2sc3c(c2C#N)CCC(COC(=O)NCc2cncn2C)C3)c1 (stereo not drawn) [Example 331, (3-Methyl-3H-imidazol-4-ylmethyl)-carbamic acid 3-cyano-2-[3-(3-methoxy-phenyl)-butanoylamino]-4,5,6,7-tetrahydro-benzo[b] thiophen-6-ylmethyl ester] the IC50 [1] was no less than 10 µM and the IC50 [2] was 0.501 to 2 µM.

In the case of COc1cccc(CCC(=O)Nc2sc3c(c2C#N)CCC(OC(=O)OCc2cccnc2)C3)c1 (stereo not drawn) [Example 219, Carbonic acid 3-cyano-2-[3-(3-methoxy-phenyl)-propanoylamino]-4,5,6,7-tetrahydro-benzo[b]thiophen-6-yl ester pyridin-3-ylmethyl ester], the IC50 [1] is reported as no less than 100 µM and the IC50 [2] is reported as 0.501 to 2 µM.

N#Cc1c(NC(=O)/C=C/c2cccnc2)sc2c1CC[C@H](COC(=O)N1CCC[C@H](O)C1)C2 [Example 87c, (S)-3-Hydroxy-piperidine-1-carboxylic acid (S)-3-cyano-2-((E)-3-pyridin-3-yl-allanoylamino)-4,5,6,7-tetrahydro-benzo[b]thiophen-6-ylmethyl ester] gave an IC50 [1] of no less than 100 µM and an IC50 [2] of no more than 0.501 µM.

Molecule CCNC(=O)OC1CCc2c(sc(NC(=O)CCc3ccccc3OCC)c2C#N)C1 (stereo not drawn) [Example 153, Ethyl-carbamic acid 3-cyano-2-[3-(2-ethoxy-phenyl)-propanoylamino]-4,5,6,7-tetrahydro-benzo[b]thiophen-6-yl ester] has an IC50 [1] of no less than 10 µM and an IC50 [2] of no more than 0.501 µM.

CC(CC(=O)Nc1sc2c(c1C#N)CCC(COC(=O)N1CCCC1)C2)c1ccccn1 (stereo not drawn) [Example 371, Pyrrolidine-1-carboxylic acid 3-cyano-2-(3-pyridin-2-yl-butanoylamino)-4,5,6,7-tetrahydro-benzo[b]thiophen-6-ylmethyl ester] gave an IC50 [1] of no less than 50.1 µM and an IC50 [2] of 0.501 to 2 µM.

Molecule COc1cccc(CCC(=O)Nc2sc3c(c2C#N)CCC(OC(=O)NC2CCOCC2)C3)c1 (stereo not drawn) [Example 251, (Tetrahydro-pyran-4-yl)-carbamicacid 3-cyano-2-[3-(3-methoxy-phenyl)-propanoylamino]-4,5,6,7-tetrahydro-benzo[b]thiophen-6-yl ester] has an IC50 [1] of no less than 100 µM and an IC50 [2] of 0.501 to 2 µM.

In the case of Cc1nocc1CNC(=O)OCC1CCc2c(sc(NC(=O)CC(C)c3ccccc3)c2C#N)C1 (stereo not drawn) [Example 352, (3-Methyl-isoxazol-4-ylmethyl)-carbamic acid 3-cyano-2-(3-phenyl-butanoylamino)-4,5,6,7-tetrahydro-benzo[b]thiophen-6-ylmethyl ester], the IC50 [1] is reported as no less than 100 µM and the IC50 [2] is reported as no more than 0.501 µM.

N#Cc1c(NC(=O)/C=C/c2cccnc2)sc2c1CCC(COC(=O)N[C@H]1CC[C@H](O)CC1)C2 (stereo partly drawn) [Example 100, trans-4-Hydroxycyclohexyl-carbamic acid 3-cyano-2-((E)-3-pyridin-3-yl-allanoylamino)-4,5,6,7-tetrahydro-benzo[b]thiophen-6-ylmethyl ester] gave an IC50 [1] of no less than 100 µM and an IC50 [2] of 0.501 to 2 µM.

For CCNC(=O)OCC1CCc2c(sc(NC(=O)/C=C/c3cccnc3)c2C#N)C1 (stereo not drawn) [Example 9, Ethyl-carbamic acid 3-cyano-2-((E)-3-pyridin-3-yl-allanoylamino)-4,5,6,7-tetrahydro-benzo[b]thiophen-6-ylmethyl ester], the IC50 [1] was no less than 100 µM and the IC50 [2] was 0.501 to 2 µM.

CCNC(=O)OCC1CCc2c(sc(NC(=O)CCc3cccc(OC)c3)c2C#N)C1 (stereo not drawn) [Example 252, Ethyl-carbamic acid 3-cyano-2-[3-(3-methoxy-phenyl)-propanoylamino]-4,5,6,7-tetrahydro-benzo[b]thiophen-6-ylmethyl ester] was tested, and the IC50 [1] was no less than 100 µM and the IC50 [2] was no more than 0.501 µM.

CCOc1ccccc1CCC(=O)Nc1sc2c(c1C#N)CCC(OC(=O)NCc1ccnn1C)C2 (stereo not drawn) [Example 169, (2-Methyl-2H-pyrazol-3-ylmethyl)-carbamic acid 3-cyano-2-[3-(2-ethoxy-phenyl)-propanoylamino]-4,5,6,7-tetrahydro-benzo[b]thiophen-6-yl ester] was tested, and the IC50 [1] was no less than 50.1 µM and the IC50 [2] was no more than 0.501 µM.

With COc1cccc(CCC(=O)Nc2sc3c(c2C#N)CCC(COC(=O)NCc2ccno2)C3)c1 (stereo not drawn) [Example 243, Isoxazol-5-ylmethyl-carbamic acid 3-cyano-2-[3-(3-methoxy-phenyl)-propanoylamino]-4,5,6,7-tetrahydro-benzo[b]thiophen-6-ylmethyl ester] the IC50 [1] was no less than 100 µM and the IC50 [2] was 0.501 to 2 µM.

For N#Cc1c(NC(=O)/C=C/c2cccnc2)sc2c1CCC(COC(=O)N1CCC[C@H]1CO)C2 (stereo partly drawn) [Example 104, 2-(S)-(Hydroxymethyl) pyrrolidine-1-carboxylic acid 3-cyano-2-((E)-3-pyridin-3-yl-allanoylamino)-4,5,6,7-tetrahydro-benzo[b]thiophen-6-ylmethyl ester], the IC50 [1] was no less than 100 µM and the IC50 [2] was no more than 0.501 µM.

Work on Cc1nocc1CNC(=O)OC1CCc2c(sc(NC(=O)/C=C/c3cccnc3)c2C#N)C1 (stereo not drawn) [Example 59, (3-Methyl-isoxazol-4-ylmethyl)-carbamic acid 3-cyano-2-((E)-3-pyridin-3-yl-allanoylamino)-4,5,6,7-tetrahydro-benzo[b]thiophen-6-yl ester] yielded an IC50 [1] of no less than 100 µM and an IC50 [2] of no more than 0.501 µM.

COc1cccc(CCC(=O)Nc2sc3c(c2C#N)CCC(OC(=O)NCc2cn(C)cn2)C3)c1 (stereo not drawn) [Example 222, (1-Methyl-1H-imidazol-4-ylmethyl)-carbamic acid 3-cyano-2-[3-(3-methoxy-phenyl)-propanoylamino]-4,5,6,7-tetrahydro-benzo[b]thiophen-6-yl ester] gave an IC50 [1] of no less than 100 µM and an IC50 [2] of 0.501 to 2 µM.

Molecule N#Cc1c(NC(=O)/C=C/c2cccnc2)sc2c1CCC(COC(=O)n1cccc1)C2 (stereo not drawn) [Example 141, Pyrrole-1-carboxylic acid 3-cyano-2-((E)-3-pyridin-3-yl-allanoylamino)-4,5,6,7-tetrahydro-benzo[b]thiophen-6-ylmethyl ester] has an IC50 [1] of no less than 100 µM and an IC50 [2] of 0.501 to 2 µM.

CCn1nccc1CNC(=O)OCC1CCc2c(sc(NC(=O)CC(C)c3cccc(OC)c3)c2C#N)C1 (stereo not drawn) [Example 341, (2-Ethyl-2H-pyrazol-3-ylmethyl)-carbamic acid 3-cyano-2-[3-(3-methoxy-phenyl)-butanoylamino]-4,5,6,7-tetrahydro-benzo[b] thiophen-6-ylmethyl ester] showed an IC50 [1] of no less than 50.1 µM and an IC50 [2] of 0.501 to 2 µM.

For COc1cccc(C(C)CC(=O)Nc2sc3c(c2C#N)CCC(COC(=O)NCc2cc(C)no2)C3)c1 (stereo not drawn) [Example 364, (3-Methyl-isoxazol-5-ylmethyl)-carbamic acid 3-cyano-2-[3-(3-methoxy-phenyl)-butanoyl-amino]-4,5,6,7-tetrahydro-benzo[b]thiophen-6-ylmethyl ester], the IC50 [1] was no less than 100 µM and the IC50 [2] was no more than 0.501 µM.

N#Cc1c(NC(=O)/C=C/c2cccnc2)sc2c1CCC(OC(=O)N1CCCC1)C2 (stereo not drawn) [Example 62, Pyrrolidine-1-carboxylic acid 3-cyano-2-((E)-3-pyridin-3-yl-allanoylamino)-4,5,6,7-tetrahydro-benzo[b]thiophen-6-yl ester] showed an IC50 [1] of no less than 100 µM and an IC50 [2] of no more than 0.501 µM.

Work on Cn1ccnc1CNC(=O)OCC1CCc2c(sc(NC(=O)/C=C/c3cccnc3)c2C#N)C1 (stereo not drawn) [Example 45, (1-Methyl-1H-imidazol-2-ylmethyl)-carbamic acid 3-cyano-2-((E)-3-pyridin-3-yl-allanoylamino)-4,5,6,7-tetrahydro-benzo[b]thiophen-6-ylmethyl ester] yielded an IC50 [1] of no less than 100 µM and an IC50 [2] of 0.501 to 2 µM.

Molecule CCOc1ccccc1CCC(=O)Nc1sc2c(c1C#N)CCC(COC(=O)NCc1ccccn1)C2 (stereo not drawn) [Example 184, Pyridin-2-ylmethyl-carbamic acid 3-cyano-2-[3-(2-ethoxy-phenyl)-propanoylamino]-4,5,6,7-tetrahydro-benzo[b]thiophen-6-ylmethyl ester] has an IC50 [1] of no less than 100 µM and an IC50 [2] of no more than 0.501 µM.
